In patent US11857322B2, “Systems and methods for screening, diagnosing, and stratifying patients” (BlackThorn Therapeutics, Inc., priority 2018, dated 2024):

Key:
[1] = test system: patients with major depressive disorder; assay: Randomized, placebo controlled study of BTRX-246040 in patients with major depressive disorder; assay type: in vivo, human
Description: The disclosed systems and methods were used in a randomized, placebo controlled study to identify patients that would respond to BTRX-246040 (LY2940094)—a nociceptin receptor antagonist (“NOPA”). Details about the chemical structure and other properties, uses and indications for BTRX-246040 are disclosed in J M Witkin et al., “Therapeutic Approaches for NOP Receptor Antagonists in Neurobehavioral Disorders: Clinical Studies in Majority Depressive Disorder and Alcohol Use Disorder with BTRX-246040,” the content of which is incorporated herein by reference in its entirety. Additionally, BTRX-246040, it's uses, indications, treatments, and forms are disclosed in U.S. Pat. No. 8,232,289 filed Nov. 10, 2010, titled “Spiropiperidine Compounds as ORL-1 Receptor Antagonists” and U.S. Publication NO. 2012/0214784 filed Aug. 23, 2012 titled “Spiropiperidine Compounds as ORL-1 Receptor Antagonists,” both of which are incorporated by reference in their entirety herein.
During the study disclosed herein, BTRX-246040 was administered once daily in patients with major depressive disorder without anhedonia. The study included 73 patients with 38 randomized to BTRX-246040 and 35 randomized to the placebo. The BTRX group had 17 responders and the placebo had 15 responders. The study included the following methods: • 28 days screening period • Eight (8 (weeks of active treatment • Off-drug follow up after one to two weeks • 104 MDD patients randomized • 1:1 ratio stratified by SHAPS≤4 and SHAPS>4 • dosage: 40 mg first week, then 80 mg onwards when tolerated
The following are known clinical questionnaires that were utilized at the indicated time points above: • Montgomery-Asberg Depression Scale (MADRS) • Hamilton Anxiety Scale (HAMA) • Hospital Anxiety and Depression Scale (HADS-A/HADS-D) • Snaith-Hamilton Pleasure Scale (SHAPS) • Dimensional Anhedonia Rating Scale (DARS) Tasks
The primary outcome of the study utilized was the clinical scale MADRS total at week 8. […]

[2] = test system: patients with mood and anxiety spectrum disorders; assay: FAST-MAS phase 2a study of CERC-501 in mood and anxiety spectrum disorders; assay type: in vivo, human
Description: In another example, during a phase 2a study known as FAST-MAS was run to evaluate the Kappa Opioid Receptor (“KOR”) as a target for the treatment of mood and anxiety spectrum disorders. Additionally, CERC-501, it's uses, indications, treatments, and forms are disclosed in PCT Publication No. WO2018170492, filed Mar. 16, 2018, titled “Kappa Opioid Receptor Antagonists and Products and Methods Related Thereto” which is incorporated by reference herin in its entirety. During the trial, CERC-501 was tested to see whether it engaged key neural circuitry related to the hedonic response.
The FAST-MAS trial included a 30-day screening period, followed by 8 weeks of active treatment, follow up 12 weeks of off-drug follow up after baseline. The study included […] (of 163 enrolled) to include 45 on CERC-501 and 44 to the Placebo. The patients received […] daily for the 8 weeks of active treatment.
Patients were eligible for enrollment if they met both: • (i) DSM-IV TR critiera for at least one of: • MDD • Bipolar I or II Depressed • GAD • Social Phobia • Panic Disorder • PTSD; and • (ii) SHAPS score of ≥20
Furthermore, the primary outcome measures were the following measures included in Table 7 below. These include the fMRI, the SHAPS scale, and the PRT task as disclosed herein

| Structure (SMILES) | number of responders ([1]; 38 patients randomized to BTRX-246040, once daily, 40 mg first week then 80 mg, 8 weeks, high responder = MADRS decrease by 50% from baseline) | group level treatment effects versus placebo ([1]; across all subjects, MADRS total at week 8, FIGS. 15A-15B) | change on the MADRS scale in patients identified by the classifiers as higher responders ([1]; after the 8-week study, subgroup chosen by classifiers from baseline data, FIGS. 16A-16B) | impact on patients identified using the Bayesian Decision Lists versus patients generally that received active treatment ([2]; subgroup identified by rule list, FIGS. 26A-26B) | outcome and treatment response ([2]; whole patient cohort, 8 weeks of active treatment) |
| --- | --- | --- | --- | --- | --- |
| Cc1nn(-c2ncccc2CO)cc1CN1CCC2(CC1)OCC(F)(F)c1cc(Cl)sc12 [BTRX-246040] | 17 | did as well as the placebo | greater than 5 point |  |  |
| Cc1cc(C)cc([C@@H]2CCCN2Cc2ccc(Oc3ccc(C(N)=O)cc3F)cc2)c1 [CERC-501] |  |  |  | greater on the patients identified using the Bayesian Decision Lists than the impact generally on the patients that received the active treatment | illustrated a difference in the outcome and treatment response |
